This note sets out measurements from article PMC9945865, “Anticancer evaluation of new organometallic ruthenium(II) flavone complexes” (RSC Medicinal Chemistry, 2022).

Experiment [1] deals with MDA-MB-231. Briefly: Wound healing (migration) 24 h scratch assay. It is filed as cell-based, human. The conditions noted are these: for rise in compound 2's migration inhibition activity upon metal coordination: p < 0.05. How it is done:
Malignant cell migration is essential for tumour invasion and metastasis.[1] Thus, the ability of the synthetic flavones (1 and 2) and their Ru(II) metal complexes (1Ru and 2Ru) to inhibit the migration of breast cancer cells (MCF-7 and MDA-MB-231) was assessed by an in vitro 24 h scratch assay. Low, sub-cytotoxic concentrations of 1, 10 and 20 μM were used in this evaluation.
MCF-7 or MDA-MB-231 cells were seeded in 12-well plates at 2 × 10^5 or 1 × 10^5 cells per mL, respectively, and cultured until 70–80% confluency. Afterwards, they were serum-starved (0% serum) for 24 h to inactivate the cell proliferation. A scratch was performed on the cell monolayers using a 200 μL pipette tip. Cells were then washed twice with PBS and treated with complete medium and one of the synthesized derivatives at 1, 10 or 20 μM. […] Images of the scratches were taken immediately after performing the scratch (t = 0 h) and at 24 h (t = 24 h). The area not covered by the cells was quantified using ImageJ software. % of wound closure was calculated using the following equation:100 × ((Area of scratch at t0 − Area of scratch at t24)/Area of scratch at t0)

For experiment [2], the system named is VEGF i-motif DNA. Briefly: I-motif DNA binding, UV-visible absorbance. The arrangement: species or system human. From the text:
(§1) I-motifs are four stranded antiparallel cytosine rich DNA sequences capable of forming at telomere and promotor regions of genomic DNA.[41,42] […] Due to the presence of potential i-motif forming sequences in 69% of promoter regions in human oncogenes, they are postulated to play a key role in oncogene expression regulation.[44] VEGF and c-myc i-motif sequences are prevalent in oncogene promotor regions in many cancers including breast cancer and as such their ligands have potential anticancer roles.[45] The natural flavonol, fisetin, is reported to specifically bind to VEGF i-motif DNA and regulate its function by stabilizing its hairpin structure.[31] […] In continuation of our investigation of the effects of Ru metal complexation on the different biological activities of flavonoids, interactions with VEGF and c-myc i-motif DNA were studied using UV-vis spectroscopic techniques. […] However, 2Ru's addition led to a 1 nm hypsochromic shift of VEGF i-motif absorbance maximum from 272 to 271 nm. On the other hand, addition of the 4-oxo flavone (1) and its Ru complex (1Ru) led to minor changes in λmax of both sequences that was hypochromic (5% and 3%) with VEGF and hyperchromic (2% and 5%) in case of c-myc (Fig. 8).
(§2) UV-visible absorbance measurements and DNA UV melting studies were performed on a Cary 300 C (Varian USA) UV-visible spectrophotometer. VEGF and c-myc i-motif DNA (5′-3′ sequences ([…]) and ([…]), respectively) were purchased from Sigma-Aldrich (Gillingham, UK) and used without further purification. Na cacodylate buffer (20 mM, pH 5.5) was used for both i-motifs. DNA concentrations were determined by measuring the absorbance at 260 nm after melting using the molar extinction coefficient supplied by the manufacturer. VEGF and c-myc i-motifs were prepared for experiments by diluting with buffer solution, annealed with or without the flavonoid at 95 °C for 5 min then gently cooled to room temperature. The stock solutions of the test compounds (20 mM) were prepared in 100% sterile DMSO. These stocks were then appropriately diluted with HPLC grade water and DMSO levels were maintained below 0.1% in the test concentrations.
(§3) UV-visible absorbance measurements and UV melting studies of either free i-motifs (VEGF or c-myc), free flavone (1, 1Ru, 2 or 2Ru) or both i-motif DNA and flavone (2 μM: 2 μM) were recorded using 1.0 cm matched quartz cuvettes. First spectra were recorded in the range of 200–500 nm to determine the relevant wavelength range were no peaks were observed above 320 nm. […] UV-visible absorbance was measured at 25 °C while melting curves were collected at a heating rate of 1 °C min^−1 from 20 to 90 °C. Tm was calculated by non-linear fitting of the sigmoidal curve obtained at 295 nm.

Experiment [3] relates to c-myc i-motif DNA. Description: I-motif DNA binding, UV-visible absorbance. The arrangement: species or system human. Conditions: DNA : flavonoid 2 μM : 2 μM, pH 5.5, 25 °C.
Source text: as §1, §2, §3

Experiment [4] has as its system VEGF i-motif DNA. Description: I-motif DNA UV melting (thermal stability). Conditions: for Tm: VEGF i-motif with flavone at 1 : 1 ratio, 295 nm, free DNA 46 °C; for ΔTm: ΔTm = Tm (DNA-flavone) − Tm (DNA). It is filed as binding, human.
Source text: (§4) The effect of this set of flavones on VEGF and c-myc was further evaluated via thermal stability measurements. Stabilizing/destabilizing the promotor i-motif structures is often reported to regulate expression of the corresponding genes, which for VEGF and c-myc could have detrimental effects on cancer growth and propagation.[48] As observed in Fig. 9, effects of the test flavones on the thermal stability of the VEGF and c-myc i-motif sequences were generally marginal and in agreement with λmax chromophoric shifts. […] Compound 1 destabilized VEGF i-motif in contrast to stabilizing the c-myc one. This mirrored the trend of a higher chromophoric shift observed for flavone 1 with VEGF i-motif sequence that also differed in pattern (hypochromic) from the shift witnessed with the c-myc sequence (hyperchromic). These findings could indicate higher selectivity of the 4-oxo derivative (1) towards VEGF i-motif based on an intercalative binding mode especially that hypochromic shifts are reported with DNA intercalation.[49,50] […] In this regard, the highest i-motif activity seen for the parent flavonoids was switched from VEGF to c-myc with compound 1 and vice versa with compound 2 upon Ru chelation. This emphasizes the key role of the interplay between the substitution at position 4 and metal complexation on the interaction with biological targets.
as §2, §3

Experiment [5] deals with c-myc i-motif DNA. Description: I-motif DNA UV melting (thermal stability). Format: binding, human. The conditions noted are these: for Tm: c-myc i-motif with flavone at 1 : 1 ratio, 295 nm, free DNA 45 °C; for ΔTm: c-myc i-motif, 1 : 1 ratio, ΔTm = Tm (DNA-flavone) − Tm (DNA).
Source text: as §4, §2, §3

[6] abbreviates: DNA : flavonoid 2 μM : 2 μM, pH 5.5, 25 °C.

A word on the ΔTm: it is the change in melting temperature against a reference sample.

Turning to `Cc1ccc(C(C)C)cc1.O=c1cc(-c2ccc(Cl)cc2)oc2cc(O)cc([O-])c12.[Cl-].[Ru+2]` [1Ru, chlorido [(5-oxo-κO)-7-hydroxy-2-(4′-chlorophenyl)-4H-chromen-4-onato-κO] (η^6-p-cymene)ruthenium(II)], the “effect on the migration” value in experiment [1] (MDA-MB-231, 1, 10, 20 μM, 24 h) is recorded as “neither showed any effect”. Also, the “hypochromic change at λmax” value in experiment [2] (setting [6]) stood at 3%. The “hyperchromic shift (increase) at absorbance maximum λmax” value in experiment [3] was 5%. The figures for the Tm in experiment [4] and in experiment [5] were 47 °C and 48 °C, respectively. Also, the ΔTm came out at 1 °C in experiment [4] (VEGF i-motif, 1 : 1 ratio) and 3 °C in experiment [5].
On to `Cc1ccc(C(C)C)cc1.[Cl-].[O-]c1cc(O)cc2oc(-c3ccc(Cl)cc3)cc(=S)c12.[Ru+2]` [2Ru, chlorido [(5-oxo-κO)-7-hydroxy-2-(4′-chlorophenyl)-4H-chromen-4-thionato-κO] (η^6-p-cymene)ruthenium(II)], for which the migration inhibition in experiment [1] (MDA-MB-231, 1 μM, 24 h) is listed as 47%; in experiment [1] (MDA-MB-231, 10 μM, 24 h), 44%; in experiment [1] (MDA-MB-231, 20 μM, 24 h), 36%. The “rise in compound 2's migration inhibition activity upon metal coordination” value is on record as 4% in experiment [1] (MDA-MB-231, 1 μM) and 7% in experiment [1] (MDA-MB-231, 20 μM). Also, the figures for the “hyperchromic shift (increase) at absorbance maximum λmax” value in experiment [2] (setting [6]) and in experiment [3] were 2% and 8%, respectively. For the same compound, the “hypsochromic shift of absorbance maximum” value in experiment [2] (from 272 to 271 nm, 1 : 1 ratio) worked out at 1 nm. The Tm in experiment [4] is 42 °C; in experiment [5], 44 °C. In experiment [4] (VEGF i-motif, 1 : 1 ratio), the “decrease in the i-motif's transition temperature (Tm)” value came to 4 °C. Moreover, the ΔTm in experiment [4] (VEGF i-motif, 1 : 1 ratio) was −4 °C; in experiment [5], −1 °C.
